Data as given in patent US20150246093A1, “ORAL FORMULATIONS OF ANGIOTENSIN” (TARIX PHARMACEUTICALS LTD., priority 2012, published 2015).
Read-outs that look alike come from different tables or passages of the source.

Assay: Pharmacokinetics after intra-duodenal injection (ID) in anesthetized rats, model mimicking enteric-coated oral dosage form, plasma LC-MS
Format: in vivo, rat
Details: rat, plasma; for Tmax / AUC(0-t) / Cmax / Half-Life: other: intra-duodenal injection (ID); for AUC(0-t): read-out: AUC0-90 (converted); for Cmax: read-out: Cmax; for level at 5 min: time point 5 min; for level at 5 min / level at 10 min / level at 20 min / level at 40 min / level at 1 h / level at 1.5 h: Average, read-out: Angiotensin (1-7) concentration; for level at 10 min: time point 10 min; for level at 20 min: time point 20 min; for level at 40 min: time point 40 min; for level at 1 h: time point 60 min; for level at 1.5 h: time point 90 min
Method: This model mimics the release and absorption expected from an orally delivered enteric coated solid dosage form such as capsule or tablet.
After extraction, the samples were then transferred to ice-cold tubes containing a protease inhibitor cocktail. The samples were kept on ice until they were centrifuged at 4° C. to obtain plasma. The plasma supernatants were then frozen −70° C. until analysis using an LC-MS assay.
The oral delivery of an angiotensin (1-7) peptide (e.g., TXA127) was then evaluated in a rat model that mimics the release of the peptide into the intestine by enteric-coated capsule. Briefly, the duodenums of anesthetized rats were surgically exposed, and an angiotensin (1-7) peptide was delivered through a 27 gauge needle into the duodenum. A baseline was obtained by ID administration of an angiotensin (1-7) in PBS. Samples of blood was removed from the carotid artery before and 5, 10, 20, 40, 60 and 90 minutes after peptide administration. Subsequently, an angiotensin (1-7) peptide was administered ID in 400 mM citrate buffer (pH 3.5) and lauroyl-L-carnitine (LLC) (10 mg/ml), a formulation that mimics the contents of the enteric-coated capsules. In order to maximize the stability of TXA127 in rat circulation, captopril (e.g., 0.5 mg/ml or 5 mg/ml) may be added to the formulations. Blood samples were taken at the same time points as the baseline study and handled as described above for analysis.

[1] = 3 mg, ID 0.3 ml A [10 mg/ml in PBS], Mean PK Values (average of individual PK parameters)
[2] = 3 mg, pH 3.5, ID 0.3 ml B [10 mg/ml, 10 mg/ml LLC, 400 mM Citrate pH 3.5, 150 mM NaCl], Average (PK value of the mean concentrations)
[3] = 3 mg, pH 3.5, ID 0.3 ml B [10 mg/ml, 10 mg/ml LLC, 400 mM Citrate pH 3.5, 150 mM NaCl], Mean PK Values (average of individual PK parameters)
[4] = 3 mg, pH 3.5, ID 0.3 ml C [10 mg/ml, Captopril 0.5 mg/ml, 10 mg/ml LLC, 400 mM Citrate pH 3.5, 150 mM NaCl], Average (PK value of the mean concentrations)
[5] = 3 mg, pH 3.5, ID 0.3 ml C [10 mg/ml, Captopril 0.5 mg/ml, 10 mg/ml LLC, 400 mM Citrate pH 3.5, 150 mM NaCl], Mean PK Values (average of individual PK parameters)
[6] = 3 mg, pH 3.5, ID 0.3 ml C [10 mg/ml, Captopril 5 mg/ml, 10 mg/ml LLC, 400 mM Citrate pH 3.5, 150 mM NaCl], Average (PK value of the mean concentrations)
[7] = 3 mg, pH 3.5, ID 0.3 ml C [10 mg/ml, Captopril 5 mg/ml, 10 mg/ml LLC, 400 mM Citrate pH 3.5, 150 mM NaCl], Mean PK Value (average of individual PK parameters)
[8] = pH 3.5, ID 0.3 ml C [10 mg/ml, Captopril 0.5 mg/ml, 10 mg/ml LLC, 400 mM Citrate pH 3.5, 150 mM NaCl]
[9] = pH 3.5, ID 0.3 ml C [10 mg/ml, Captopril 5 mg/ml, 10 mg/ml LLC, 400 mM Citrate pH 3.5, 150 mM NaCl]

CC[C@H](C)[C@H](NC(=O)[C@H](Cc1ccc(O)cc1)NC(=O)[C@@H](NC(=O)[C@H](CCCNC(=N)N)NC(=O)[C@@H](N)CC(=O)O)C(C)C)C(=O)N[C@@H](Cc1c[nH]cn1)C(=O)N1CCC[C@H]1C(=O)O [Angiotensin (1-7), Asp^1-Arg^2-Val^3-Tyr^4-Ile^5-His^6-Pro^7]
Tmax (3 mg, ID 0.3 ml A [10 mg/ml in PBS], Average (PK value of the mean concentrations), read-out: Tmax (converted)): 60 min
AUC(0-t) [1]: 6.72 ng·h/mL
Cmax [1]: 7.5 ng/mL
Half-Life (3 mg, ID 0.3 ml A [10 mg/ml in PBS], Mean PK Values (average of individual PK parameters), read-out: Half-Life): 38.9 min
Tmax (3 mg, ID 0.3 ml A [10 mg/ml in PBS], Mean PK Values (average of individual PK parameters), read-out: Tmax (converted)): 46 min
Half-Life (3 mg, ID, 0.3 mL of 10 mg/mL A(1-7) formulated in PBS, 6 rats, range over the group, read-out: Half-lives): 7 to 140 min
Tmax (3 mg, ID, 0.3 mL of 10 mg/mL A(1-7) formulated in PBS, 6 rats, range over the group, read-out: Tmax after administration): 10 to 60 min
AUC(0-t) [2]: 71.2 ng·h/mL
Cmax [2]: 416 ng/mL
Half-Life (3 mg, pH 3.5, ID 0.3 ml B [10 mg/ml, 10 mg/ml LLC, 400 mM Citrate pH 3.5, 150 mM NaCl], Average (PK value of the mean concentrations), read-out: Half-Life): 13 min
Tmax (3 mg, pH 3.5, ID 0.3 ml B [10 mg/ml, 10 mg/ml LLC, 400 mM Citrate pH 3.5, 150 mM NaCl], Average (PK value of the mean concentrations), read-out: Tmax (converted)): 5 min
AUC(0-t) [3]: 71.2 ng·h/mL
Cmax [3]: 419 ng/mL
Half-Life (3 mg, pH 3.5, ID 0.3 ml B [10 mg/ml, 10 mg/ml LLC, 400 mM Citrate pH 3.5, 150 mM NaCl], Mean PK Values (average of individual PK parameters), read-out: Half-Life): 46.4 min
Tmax (3 mg, pH 3.5, ID 0.3 ml B [10 mg/ml, 10 mg/ml LLC, 400 mM Citrate pH 3.5, 150 mM NaCl], Mean PK Values (average of individual PK parameters), read-out: Tmax (converted)): 5.8 min
Tmax (3 mg, pH 3.5, ID 0.3 ml B [10 mg/ml, 10 mg/ml LLC, 400 mM Citrate pH 3.5, 150 mM NaCl], individual rats, read-out: Tmax (converted)): 5 min
AUC(0-t) [4]: 126 ng·h/mL
Cmax [4]: 628 ng/mL
Half-Life (3 mg, pH 3.5, ID 0.3 ml C [10 mg/ml, Captopril 0.5 mg/ml, 10 mg/ml LLC, 400 mM Citrate pH 3.5, 150 mM NaCl], Average (PK value of the mean concentrations), read-out: Half-Life): 14 min
Tmax (3 mg, pH 3.5, ID 0.3 ml C [10 mg/ml, Captopril 0.5 mg/ml, 10 mg/ml LLC, 400 mM Citrate pH 3.5, 150 mM NaCl], Average (PK value of the mean concentrations), read-out: Tmax (converted)): 5 min
AUC(0-t) [5]: 119 ng·h/mL
Cmax [5]: 609 ng/mL
Half-Life (3 mg, pH 3.5, ID 0.3 ml C [10 mg/ml, Captopril 0.5 mg/ml, 10 mg/ml LLC, 400 mM Citrate pH 3.5, 150 mM NaCl], Mean PK Values (average of individual PK parameters), read-out: Half-Life): 19.4 min
Tmax (3 mg, pH 3.5, ID 0.3 ml C [10 mg/ml, Captopril 0.5 mg/ml, 10 mg/ml LLC, 400 mM Citrate pH 3.5, 150 mM NaCl], Mean PK Values (average of individual PK parameters), read-out: Tmax (converted)): 7.1 min
Tmax (3 mg, pH 3.5, ID 0.3 ml C [10 mg/ml, Captopril 0.5 mg/ml, 10 mg/ml LLC, 400 mM Citrate pH 3.5, 150 mM NaCl], individual rats, read-out: Tmax (converted)): 5 min
AUC(0-t) [6]: 157 ng·h/mL
Cmax [6]: 619 ng/mL
Half-Life (3 mg, pH 3.5, ID 0.3 ml C [10 mg/ml, Captopril 5 mg/ml, 10 mg/ml LLC, 400 mM Citrate pH 3.5, 150 mM NaCl], Average (PK value of the mean concentrations), read-out: Half-Life): 13 min
Tmax (3 mg, pH 3.5, ID 0.3 ml C [10 mg/ml, Captopril 5 mg/ml, 10 mg/ml LLC, 400 mM Citrate pH 3.5, 150 mM NaCl], Average (PK value of the mean concentrations), read-out: Tmax (converted)): 5 min
AUC(0-t) [7]: 156 ng·h/mL
Cmax [7]: 640 ng/mL
Half-Life (3 mg, pH 3.5, ID 0.3 ml C [10 mg/ml, Captopril 5 mg/ml, 10 mg/ml LLC, 400 mM Citrate pH 3.5, 150 mM NaCl], Mean PK Value (average of individual PK parameters), read-out: Half-Life): 14.1 min
Tmax (3 mg, pH 3.5, ID 0.3 ml C [10 mg/ml, Captopril 5 mg/ml, 10 mg/ml LLC, 400 mM Citrate pH 3.5, 150 mM NaCl], Mean PK Value (average of individual PK parameters), read-out: Tmax (converted)): 5.8 min
Tmax (3 mg, pH 3.5, ID 0.3 ml C [10 mg/ml, Captopril 5 mg/ml, 10 mg/ml LLC, 400 mM Citrate pH 3.5, 150 mM NaCl], individual rats, read-out: Tmax (converted)): 5 min
Half-Life (3 mg, pH 3.5, ID, 0.3 mL of 10 mg/mL A(1-7) with 10 mg/mL LLC, 400 mM Citrate, 150 mM NaCl pH 3.5, range over the group, read-out: Half-lives): 9.3 to 173 min
Tmax (3 mg, pH 3.5, ID, 0.3 mL of 10 mg/mL A(1-7) with 10 mg/mL LLC, 400 mM Citrate, 150 mM NaCl pH 3.5, range over the group, read-out: Tmax after administration): 5 to 10 min
Half-Life (pH 3.5, ID, 0.3 mL of 10 mg/mL A(1-7) with 0.5 mg/mL captopril, 10 mg/mL LLC, 400 mM Citrate, 150 mM NaCl pH 3.5, seven rats (Table 4), range over the group, read-out: Half-lives): 11.9 to 29.1 min
Half-Life (ID, 0.3 mL of 10 mg/mL A(1-7) with 0.5 mg/mL captopril (as printed in the text on Table 5), 10 mg/mL LLC, 400 mM Citrate, 150 mM NaCl pH 3.5, six rats, range over the group, read-out: Half-lives): 7.97 to 25.6 min
Tmax (ID, 0.3 mL of 10 mg/mL A(1-7) with 0.5 mg/mL captopril, 10 mg/mL LLC, 400 mM Citrate, 150 mM NaCl pH 3.5, seven rats (Table 4), range over the group, read-out: Tmax after administration): 5 to 10 min
level at 5 min [8]: 628 ng/mL
level at 10 min [8]: 233 ng/mL
level at 20 min [8]: 129 ng/mL
level at 40 min [8]: 13.9 ng/mL
level at 1 h [8]: 14.4 ng/mL
level at 1.5 h [8]: 7.74 ng/mL
level at 5 min [9]: 619 ng/mL
level at 10 min [9]: 424 ng/mL
level at 20 min [9]: 138 ng/mL
level at 40 min [9]: 24.1 ng/mL
level at 1 h [9]: 19.2 ng/mL
level at 1.5 h [9]: 5.83 ng/mL
